Assay [1] deals with T1, β3-AR (Homo sapiens, UniProt P13945). The assay can be described thus: Cyclic AMP production in CHO-K1 cells transfected with β3-AR. It is filed as cell-based. The arrangement: host or cells: CHO-K1. The note with it: CHO β3-AR. Here is the method: (§1) Binding Studies and Cyclic AMP Determination. CHO-K1 cells transfected with the human β1- and β2-AR obtained from University of Nottingham, UK, while CHOK1 cells transfected with the β3-AR were obtained from Astra Zeneca, Macclesfield, Cheshire, UK. Gene expression was under the control of hygromycin, together with a β-gal reporter construct, selected for resistance to G418. They were maintained in DMEM supplemented with 2 mM glutamine, hygromycin B ([…]), G418 ([…]), and 10% FCS, under an atmosphere of 10% CO2 in air. To determine the effect of agonists on cyclic AMP production, cells were grown in 24-well plates containing 1 ml of nutrient medium.
T1 sequence (P13945 whole entry): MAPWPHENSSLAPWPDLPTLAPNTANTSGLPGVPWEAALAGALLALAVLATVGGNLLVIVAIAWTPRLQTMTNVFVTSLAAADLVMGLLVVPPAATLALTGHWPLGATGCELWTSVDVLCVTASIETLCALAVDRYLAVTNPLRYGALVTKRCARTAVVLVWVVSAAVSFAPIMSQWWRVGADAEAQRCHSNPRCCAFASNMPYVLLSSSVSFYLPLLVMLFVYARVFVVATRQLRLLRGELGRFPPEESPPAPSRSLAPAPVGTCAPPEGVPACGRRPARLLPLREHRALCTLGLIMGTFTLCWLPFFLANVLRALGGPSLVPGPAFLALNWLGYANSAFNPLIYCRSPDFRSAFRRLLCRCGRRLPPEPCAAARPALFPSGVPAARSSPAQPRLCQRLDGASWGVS

A further assay deals with adipocytes, BAT. In words: Expression of ZAG, HSL, UCP in adipose tissue/adipocytes of mice (5 day ZAG study). It is filed as in vivo, mouse. The note with it: ERK inhibitor added with ZAG. The method, then: Western Blot Analysis. Freshly excised gastrocnemius muscles were washed in PBS and lysed in PHOSPHOSAFE™ Extraction Reagent for 5 min at room temperature followed by sonication at 4° C. The lysate was cleared by centrifugation at 18,000 g for 5 min at 4° C. and samples of cytosolic protein (5 μg) were resolved on 12% sodium dodecyl sulfate-polyacrylamide gel electrophoresis at 180V for approximately 1 h. This was followed by transference to 0.45 μm nitrocellulose membranes, which were then blocked with 5% Marvel in Tris-buffered saline, pH 7.5, at 4° C. overnight. Both primary and secondary antibodies were used at a dilution of 1:1000 except anti-myosin (1:250). Incubation was for 1 h at room temperature, and development was by ECL. Blots were scanned by a densitometer to quantify differences.
A 5 day study was performed where ZAG was administered at 35 μg per day i.v. on a daily basis for 5 days. At the end of the experiment tissues were removed and blotted, or functional assays were carried out with isolated adipocytes. […] When ep adipocytes were prepared and maintained in tissue culture (RPMI 1640+10% FCS) ZAG expression was maintained for a further 3 days, even though no ZAG was added to the culture medium (FIG. 6B). […] In fact, as discussed above, too much ZAG is more likely to lead to resistance rather than an increased response.

Assay [2] has as its system ob/ob mice. The assay can be described thus: ob/ob mice treated with ZAG i.v. with or without propanolol. It is filed as in vivo, mouse. As to conditions: propanolol 40 mg kg−1 po daily. Here is the method:
Animals. […] Male mice (about 20 weeks of age) were grouped into three per cage and kept in an air conditioned room at 22±2° C., with ad libitum feeding of a rat and mouse breeding diet (Special Diet Services, Witham, UK) and tap water. Mice were administered ZAG (50 μg, i.v. in 100 μl PBS) or PBS daily with or without propanolol (40 mgkg^−1, po, daily) and body weight and food and water intake were determined, as well as urinary glucose excretion and body temperature, determined by the use of a rectal thermometer (RS Components, Northants, UK). A glucose tolerance test was performed on day 3. […] Blood samples were removed from the tail vein at 15, 30, 60 and 120 min after glucose administration and used for the measurements of glucose and insulin. At the end of the experiment the animals were terminated by cervical dislocation, tissues removed and rapidly frozen in liquid nitrogen, and maintained at −80° C.
To determine whether ZAG can increase insulin signalling the effect on Glut4 expression was determined.

Assay [3] concerns ob/ob mice. The assay can be described thus: Oral (p.o.) administration of rhZAG to ob/ob mice. The assay is classed as in vivo, mouse. As to conditions: 50 ug ZAG p.o. daily with propranolol. Here is the method: 50 ug per day of rhZAG was administered p.o. to Aston ob/ob mice. Oral dosing was achieved by assuming 5 mL/day consumption of water, and adding ZAG to achieve 50 ug per day dose based on that assumption. No attempt was made to correct for variations of consumption on a given day.
Experiment One (8 Day Oral ZAG Study): 50 ug of ZAG was administered p.o. daily in drinking water.
Experiment Two (8 Day Oral ZAG Plus Propranolol Study): 50 ug of ZAG administered p.o. daily, with and without propranolol. Propanolol blocks all of the effects of ZAG including decrease in body weight and blood glucose in the tolerance test, also blocking the rise in body temperature and the rise in plasma mouse ZAG, confirming that this occurs through a beta adrenergic receptor. […] It appears to do this by preventing the rise in mouse ZAG in the serum after oral administration of the rhZAG.
Experiment Three (Oral Study): ZAG administered p.o. daily over an extended time frame, with a recovery group split from the treated group beginning at 30 days (data not shown).

For assay [4], the system named is rat epididymal adipocytes. In words: Lipolytic activity in rat adipocytes. The note with it: rat epididymal adipocytes. The assay is classed as cell-based. Here is the method:
Lipolytic Activity in Rat Adipocytes—White adipocytes were prepared from finely minced epididymal adipose tissue of male Wistar rats (400 g) using collagenase digestion, as described (Beck S A, et al. Production of lipolytic and proteolytic factors by a murine tumor-producing cachexia in the host. Cancer Res 47:5919-5923, 1987). Lipolytic activity was determined by incubating 10^5-2×10^5 adipocytes for 2 h in 1 ml Krebs-Ringer bicarbonate buffer, pH 7.2, and the extent of lipolysis was determined by measuring the glycerol released (Wieland O. Glycerol UV method. Methods of Enzymatic Analysis, edited by Bergmeyer H U. Academic Press, London, pp 1404-1409, 1974). Spontaneous glycerol release was measured by incubating adipocytes alone. Lipolytic activity was expressed as μmol glycerol released/10^5 adipocytes/2 h.

For the next assay, the target named is T2, human β2-AR (Homo sapiens, UniProt P07550).
T2 construct: host or cells: CHO-K1
T2 sequence (P07550 whole entry): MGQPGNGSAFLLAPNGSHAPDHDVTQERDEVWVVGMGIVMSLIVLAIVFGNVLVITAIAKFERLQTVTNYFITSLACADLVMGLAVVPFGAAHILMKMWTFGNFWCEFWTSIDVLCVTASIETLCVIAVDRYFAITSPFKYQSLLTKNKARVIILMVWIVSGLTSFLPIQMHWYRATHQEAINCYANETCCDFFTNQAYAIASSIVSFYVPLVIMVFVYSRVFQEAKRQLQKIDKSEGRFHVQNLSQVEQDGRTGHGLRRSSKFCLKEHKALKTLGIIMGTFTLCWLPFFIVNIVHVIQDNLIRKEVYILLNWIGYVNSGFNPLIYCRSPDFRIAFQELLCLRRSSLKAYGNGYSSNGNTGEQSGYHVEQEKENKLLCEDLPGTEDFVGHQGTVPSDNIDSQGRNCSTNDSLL
The assay can be described thus: Cyclic AMP production in CHO-K1 cells transfected with β2-AR. The assay is classed as cell-based. The note with it: CHO β2-AR, SR59230A 10 μM. Here is the method: as §1

In the next assay the test system is murine myotubes. The assay can be described thus: Murine myotubes subjected to high glucose: protein degradation, protein synthesis, ROS, pPKR. The assay is classed as cell-based, mouse. The note with it: 10 or 25 mM glucose; ZAG 25 μg/ml. Here is the method: This utilizes murine myotubes subjected to high concentrations of glucose (10 or 25 mM). […] However the SR compound (i.e., SR59230A) can also act as a β-agonist, which it seemed to do in these experiments.
It has been shown that formation of reactive oxygen species (ROS) is important in protein degradation induced by high glucose load. […] High glucose also induces activation (phosphorylation) of PKR (FIG. 22A) and the subsequent phosphorylation of eIF2α (FIG. 22B) as is seen in skeletal muscle of ob/ob mice, which was also attenuated by ZAG.

For assay [5], the target named is T1, β3-AR. As to conditions: high affinity binding site; cited from earlier work.

Consider `CC(C)NCC(O)c1ccc(O)c(O)c1` (centres unmarked) [isoprenaline, reference compound], for which the “cyclic AMP level” value on β3-AR [1] (10 μM) is reported as “significant increases in cyclic AMP level”.
As to `COc1cccc(-c2cc(=O)c3ccccc3o2)c1N` [PD98059, reference compound], the “effect on ZAG-induced expression of phospho HSL” value with adipocytes, BAT is listed as “completely attenuated”.
As to `CC(C)NCC(O)COc1cccc2ccccc12` (centres unmarked) [propanolol, propranolol], in the assay with ob/ob mice [2], the “effect on ZAG-induced changes in oral glucose tolerance test” value was “blocked the reduction in peak plasma glucose levels” and the “effect on increased body temperature produced by ZAG” value was “completely attenuated”. For the same molecule, the “effect on decrease in body weight produced by ZAG” value in the assay with ob/ob mice [2] (ZAG 50 μg iv daily) is given as “completely attenuated”. Further, the “effect on weight loss by oral ZAG” value in the assay with ob/ob mice [3] is “totally attenuates weight loss”.
As to `CCc1ccccc1OC[C@@H](O)CN[C@H]1CCCc2ccccc21` [SR59230A, reference compound], the “effect on the lipolytic effect of ZAG” value in assay [4] is on record as “completely attenuated”. Also, the “effect on isoprenaline-induced increase in cyclic AMP” value at human β2-AR and at β3-AR [1] (SR59230A 10 μM) was “attenuated” each time. Besides, in the assay with murine myotubes, the “effect on protein degradation stimulated by high glucose” value is on record as “attenuated”.

B1: LMF: lipid mobilizing factor of cancer cachexia, shown immunologically identical to ZAG (protein, UniProt P25311 21-298, looked up)
Zinc-alpha-2-glycoprotein: QENQDGRYSLTYIYTGLSKHVEDVPAFQALGSLNDLQFFRYNSKDRKSQPMGLWRQVEGMEDWKQDSQLQKAREDIFMETLKDIVEYYNDSNGSHVLQGRFGCEIENNRSSGAFWKYYYDGKDYIEFNKEIPAWVPFDPAAQITKQKWEAEPVYVQRAKAYLEEECPATLRKYLKYSKNILDRQDPPSVVVTSHQAPGEKKKLKCLAYDFYPGKIDVHWTRAGEVQEPELRGDVLHNGNGTYQSWVVVAVPPQDTAPYSCHVQHSSLAQPLVVPWEAS
In the case of B1, the equilibrium dissociation constant (Kd) with β3-AR [5] was 78 ± 4.5 nM.

By Kd is commonly meant the concentration at which binding is half-saturated.

Source of the values: US10077295B2, “Glycoproteins having lipid mobilizing properties and therapeutic uses thereof” (Aston University, priority 2010, dated 2018).
